Consider 22 compounds from patent US9403832B2, “Pyrazolo[1,5-a]pyrimidine-based compounds, compositions comprising them, and methods of their use” (Lexicon Pharmaceuticals, Inc., priority 2012, dated 2016).

The target in assay [1] is T1, AAK1 (Homo sapiens, UniProt Q2M2I8).
T1 construct: NP_055726.2
Kind of assay: P81 filter plate assay. As to conditions: full-length human AAK1, Mu2 substrate, 33P-ATP. Type of assay: biochemical. In a few lines:
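Full-length human AAK1 (0.2 nM, 2×) was pre-incubated 10 min at RT with compounds (top concentration 96 μM in the dilution plate), then reacted 1 h at RT with full-length human Mu2 (0.2 μM, 2×), cold ATP (2 μM, 2×) and ³³P-ATP. Reactions were stopped with phosphoric acid and captured on P81 filters for scintillation counting.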

Assay [2] has as its target T1, AAK1. Nature of the assay: HEK281 cell-based assay (CBA). The note with it: HEK293F cells transfected with full length human AAK1 and AP2M1; phospho-mu2 Western blot; 3 hours incubation. On the procedure:
HEK293F cells were cultured in media containing DMEM (Gibco, cat. #11965), 10% FBS (SAFC Biosciences, cat. #12103C), 1× GPS (glutamine, penicillin and streptomycin). On day one, cells were plated on a 10 cm dish so that they are ˜80% confluent at time of transfection. Roughly 12 million cells were in a 10 cm dish at time of transfection. On day two, each dish was transfected with 48 ug DNA and 144 ul Lipofectamine 2000 (Invitrogen, cat. #11668-019). The DNA was comprised of a mixture (per 10 cm dish) containing 3 ug AAK1/HA/pIRES (full length human, NCBI accession no. NP_055726.2), 45 μg Flag/AP2MI/pcDNA (full length human), and 1.5 ml OPTI-MEM. The Lipofectamine 2000 is made up of a mixture (per 10 cm dish) containing 144 μl Lipofectamine 2000 and 1.5 ml OPTI-MEM. Each mixture was transferred to individual 15 ml tubes and incubated at RT for 5 minutes, and then the two mixes were combined and incubated at RT for 20 minutes.
Growth media was then aspirated from each 10 cm plate and replaced with 10 ml of DMEM+10% FBS (no GPS). Finally, 3 ml DNA/Lipofectamine mix was added to each 10 cm dish and mix gently followed by incubate of plate overnight at 37° C. and 5% CO2.
On day three, compounds were diluted in 100% DMSO at 1000× final concentration, followed by 3-fold serial dilutions for a total of 5 concentrations tested. Four compounds were tested per 10 cm dish. One ul of each compound dilution was then pipetted into a deep-well, 96-well plate, followed by addition of 500 μl DMEM+0.5% FBS into each well for a 2× final concentration of each compound. Cells were resuspended in a 10 cm dish by simple pipetting (HEK293 cells come off the plate that easy at this point) and then transferred to a 50 ml conical tube and pelleted by centrifugation at 1000 rpm for 5 min. Cell pellets were then resuspended in 2.75 ml DMEM+0.5% FBS per 10 cm dish and 100 μl of cell suspension transferred into each well of 96-well TC plate. Finally, 100 μl of 2× compound diluted in DMEM+0.5% FBS was then added into wells containing cell suspension for a 1× final concentration. Plates were then incubated at 37° C. and 5% CO2 for 3 hours followed by transferring of cell suspensions from each well into 12-tube PCR strips. The PCR strips were spun in a tip rack at 1000 rpm for 5 minutes to pellet cells and media was then removed by pipetting without disturbing the cell pellet.
To prepare for Western Blot analysis, cell pellets were resuspend in 40 ul 1× LDS-PAGE sample buffer (Invitrogen, cat.# NP0008)+2× Halt phophatase and protease inhibitor cocktail (Thermo Scientific, cat. #1861284), followed by sonicating each with microtip sonicator set at 5 for 8-10 seconds. Five ul of 10× NuPage Sample Reducing Agent (with 50 mM DTT) was to each sample followed by heat denaturing at 70 C for 10 min on PCR machine. A total of 10 μl per sample was loaded into each lane of a 4-20% Tris-Glycine Criterion 26-well gel (Biorad, cat. #345-0034) for the phospho-mu2 blot and 10 μl per lane in a 4-12% Bis-Tris (+MES buffer) NuPAGE 26-well gel (Invitrogen, cat.# WG1403BX10) for the mu2 blot. For controls, 2 ng of phospho-mu2 or 20 ng mu2/Flag proteins were loaded in the last well of each gel. After SDS-PAGE, samples on each gel were transferred to PVDF membrane using an iBlot and membranes were blocked for one hour in TBST+5% milk, followed by wash 3× for 5-10 min with TBST. Criterion gels were probed with rabbit anti-phospho-mu2 (1:5000; a rabbit polyclonal antibody produced by New England Peptide and affinity purified at Lexicon) in TBST+5% BSA, whereas, NuPAGE gels were probed with mouse anti-Flag (1:500; Sigma, cat.# F1804) in TBST+5% milk, and these primary antibodies were incubated overnight at 4° C. on a rocker.
On the technique in general: Immunoblotting shows a protein as a band on a membrane.

T1 sequence (Q2M2I8 1-863 isoform Q2M2I8-2): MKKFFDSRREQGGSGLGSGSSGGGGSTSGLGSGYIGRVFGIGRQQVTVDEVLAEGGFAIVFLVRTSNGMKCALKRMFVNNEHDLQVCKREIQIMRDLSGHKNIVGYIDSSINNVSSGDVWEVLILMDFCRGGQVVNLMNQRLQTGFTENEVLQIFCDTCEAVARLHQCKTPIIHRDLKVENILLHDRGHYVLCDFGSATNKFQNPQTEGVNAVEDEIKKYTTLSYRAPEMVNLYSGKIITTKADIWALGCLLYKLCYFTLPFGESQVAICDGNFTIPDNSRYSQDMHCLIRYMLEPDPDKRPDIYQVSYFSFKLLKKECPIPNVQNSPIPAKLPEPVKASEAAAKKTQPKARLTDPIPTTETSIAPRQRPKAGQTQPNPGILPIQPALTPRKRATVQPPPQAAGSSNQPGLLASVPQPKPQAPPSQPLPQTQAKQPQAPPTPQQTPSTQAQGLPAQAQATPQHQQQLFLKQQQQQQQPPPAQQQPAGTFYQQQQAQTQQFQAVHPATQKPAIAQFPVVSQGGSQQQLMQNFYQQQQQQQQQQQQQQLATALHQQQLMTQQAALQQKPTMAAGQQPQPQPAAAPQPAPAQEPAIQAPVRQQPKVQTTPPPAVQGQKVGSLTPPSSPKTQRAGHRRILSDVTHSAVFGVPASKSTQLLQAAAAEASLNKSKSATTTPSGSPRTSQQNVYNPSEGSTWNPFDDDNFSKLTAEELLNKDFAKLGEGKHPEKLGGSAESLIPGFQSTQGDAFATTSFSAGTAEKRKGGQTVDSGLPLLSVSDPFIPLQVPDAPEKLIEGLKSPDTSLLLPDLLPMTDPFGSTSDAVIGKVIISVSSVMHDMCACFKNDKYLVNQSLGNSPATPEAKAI

In the case of `COc1ncccc1-c1cnn2ccc(N3CCN(C(=O)[C@@H](N)C(C)C)CC3)nc12` [(S)-2-amino-1-(4-(3-(2-methoxypyridin-3-yl)pyrazolo[1,5-a]pyrimidin-5-yl)piperazin-1-yl)-3-methylbutan-1-one], the IC50 on AAK1 [1] and at AAK1 [2] was at most 10 nM in each case.
Turning to `CC(C)OC(=O)N1CCN(c2ccn3ncc(-c4ccc(CN)cc4)c3n2)CC1` [isopropyl 4-(3-(4-(aminomethyl)phenyl)pyrazolo[1,5-a]pyrimidin-5-yl)piperazine-1-carboxylate], the IC50 against AAK1 [1] and against AAK1 [2] was at most 10 nM each time.
As for `CC(C)C[C@H](N)C(=O)N1CCN(c2ccn3ncc(-c4ccccc4)c3n2)CC1` [(S)-2-amino-4-methyl-1-(4-(3-phenylpyrazolo[1,5-a]pyrimidin-5-yl)piperazin-1-yl)pentan-1-one], the IC50 on AAK1 [1] and at AAK1 [2] was at most 10 nM throughout.
On to `COc1ccncc1-c1cnn2ccc(NC[C@@H]3CCCN3C(=O)OC(C)(C)C)nc12` [(S)-tert-butyl 2-(((3-(4-methoxypyridin-3-yl)pyrazolo[1,5-a]pyrimidin-5-yl)amino)methyl)pyrrolidine-1-carboxylate], for which the IC50 on AAK1 [1] and at AAK1 [2] was at most 10 nM in each case.
`COc1ncccc1-c1cnn2ccc(N3CCN(C(=O)OC4CCOCC4)CC3)nc12` [tetrahydro-2H-pyran-4-yl 4-(3-(2-methoxypyridin-3-yl)pyrazolo[1,5-a]pyrimidin-5-yl)piperazine-1-carboxylate]: the values for the IC50 against AAK1 [1] and against AAK1 [2] were at most 10 nM and at most 100 nM, respectively.
Regarding `COc1ncccc1-c1cnn2ccc(N3CCN(C(=O)N4CCCCC4)CC3)nc12` [(4-(3-(2-methoxypyridin-3-yl)pyrazolo[1,5-a]pyrimidin-5-yl)piperazin-1-yl)(piperidin-1-yl)methanone], the values for the IC50 against AAK1 [1] and on AAK1 [2] were at most 10 nM and at most 100 nM, respectively.
As to `CC(C)[C@H](N)C(=O)N1CCN(c2ccn3ncc(-c4cc(F)ccc4F)c3n2)CC1` [(S)-2-amino-1-(4-(3-(2,5-difluorophenyl)pyrazolo[1,5-a]pyrimidin-5-yl)piperazin-1-yl)-3-methylbutan-1-one], the IC50 on AAK1 [1] and on AAK1 [2] was at most 10 nM each time.
Take `COCCOC(=O)N1CCN(c2ccn3ncc(-c4cc(F)ccc4OC)c3n2)CC1` [2-methoxyethyl 4-(3-(5-fluoro-2-methoxyphenyl)pyrazolo[1,5-a]pyrimidin-5-yl)piperazine-1-carboxylate]: the IC50 against AAK1 [1] and on AAK1 [2] was at most 10 nM throughout.
As to `[2H]C([2H])([2H])Oc1ncccc1-c1cnn2ccc(N3CCN(C(=O)OCC)CC3)nc12` [ethyl 4-(3-(2-d3-methoxypyridin-3-yl)pyrazolo[1,5-a]pyrimidin-5-yl)piperazine-1-carboxylate], the IC50 against AAK1 [1] was at most 10 nM; against AAK1 [2], at most 100 nM.
In the case of `COc1ncccc1-c1cnn2ccc(N3CCN(C(=O)C4(N)CCCC4)CC3)nc12` [(1-aminocyclopentyl)(4-(3-(2-methoxypyridin-3-yl)pyrazolo[1,5-a]pyrimidin-5-yl)piperazin-1-yl)methanone], the 50% inhibitory concentration (IC50) against AAK1 [1] and against AAK1 [2] was at most 10 nM throughout.
Regarding `COc1ccc(F)cc1-c1cnn2ccc(N3CC[C@H](N(C)C(=O)OC(C)C)C3)nc12` [(S)-isopropyl (1-(3-(5-fluoro-2-methoxyphenyl)pyrazolo[1,5-a]pyrimidin-5-yl)pyrrolidin-3-yl)(methyl)carbamate], the IC50 is at most 10 nM at AAK1 [1] and at most 100 nM on AAK1 [2].
The corresponding values for `CCCOC(=O)N1CCN(c2ccn3ncc(-c4cccnc4OC)c3n2)CC1` [propyl 4-(3-(2-methoxypyridin-3-yl)pyrazolo[1,5-a]pyrimidin-5-yl)piperazine-1-carboxylate] are at most 10 nM and at most 100 nM.
Take `COc1nc(C)ccc1-c1cnn2ccc(N3CCN(C(=O)OC(C)(C)C)CC3)nc12` [tert-butyl 4-(3-(2-methoxy-6-methylpyridin-3-yl)pyrazolo[1,5-a]pyrimidin-5-yl)piperazine-1-carboxylate]: the IC50 on AAK1 [1] and against AAK1 [2] was at most 10 nM throughout.
Turning to `CCOC(=O)N1CCC[C@H]1CNc1ccn2ncc(-c3ccccc3OC)c2n1` [(S)-ethyl 2-(((3-(2-methoxyphenyl)pyrazolo[1,5-a]pyrimidin-5-yl)amino)methyl)pyrrolidine-1-carboxylate], the IC50 at AAK1 [1] and at AAK1 [2] was at most 10 nM each time.
Regarding `COc1ncccc1-c1cnn2ccc(N3CCN(C(=O)[C@@H](N)C(C)(C)C)CC3)nc12` [(S)-2-amino-1-(4-(3-(2-methoxypyridin-3-yl)pyrazolo[1,5-a]pyrimidin-5-yl)piperazin-1-yl)-3,3-dimethylbutan-1-one], the concentration for half-maximal inhibition (IC50) against AAK1 [1] and against AAK1 [2] was at most 10 nM each time.
Take `CCOC(=O)N1CCN(c2ccn3ncc(-c4ccc(C)nc4OC)c3n2)CC1` [ethyl 4-(3-(2-methoxy-6-methylpyridin-3-yl)pyrazolo[1,5-a]pyrimidin-5-yl)piperazine-1-carboxylate]: the half-inhibitory concentration (IC50) against AAK1 [1] is at most 10 nM; against AAK1 [2], at most 100 nM.
For the compound `COc1nc(C)ccc1-c1cnn2ccc(N3CC[C@H](N(C)C(=O)OC(C)C)C3)nc12` [(S)-isopropyl (1-(3-(2-d3-methoxy-6-methylpyridin-3-yl)pyrazolo[1,5-a]pyrimidin-5-yl)pyrrolidin-3-yl)(methyl)carbamate], the IC50 on AAK1 [1] is at most 10 nM; against AAK1 [2] it was at most 100 nM.
As for `COc1ncccc1-c1cnn2ccc(N3CC[C@H](N(C)C(=O)OC(C)C)C3)nc12` [(S)-isopropyl (1-(3-(2-methoxypyridin-3-yl)pyrazolo[1,5-a]pyrimidin-5-yl)pyrrolidin-3-yl)(methyl)carbamate], the results for the half-maximal inhibitory concentration (IC50) against AAK1 [1] and against AAK1 [2] were at most 10 nM and at most 100 nM, respectively.
The corresponding values for `COc1ncccc1-c1cnn2ccc(N3CC[C@H](N(C)C(=O)[C@@H](N)CC(C)C)C3)nc12` [(S)-2-amino-N-((S)-1-(3-(2-methoxypyridin-3-yl)pyrazolo[1,5-a]pyrimidin-5-yl)pyrrolidin-3-yl)-N,4-dimethylpentanamide] are at most 10 nM and at most 10 nM.
The corresponding values for `Cc1ccc(-c2cnn3ccc(N4CCN(C(=O)[C@@H](N)C(C)C)CC4)nc23)c(F)c1` [(S)-2-amino-1-(4-(3-(2-fluoro-4-methylphenyl)pyrazolo[1,5-a]pyrimidin-5-yl)piperazin-1-yl)-3-methylbutan-1-one] are at most 10 nM and at most 100 nM.
As for `CC(C)[C@H](N)C(=O)N1CCN(c2ccn3ncc(-c4ccc(F)cc4)c3n2)CC1` [(S)-2-amino-1-(4-(3-(4-fluorophenyl)pyrazolo[1,5-a]pyrimidin-5-yl)piperazin-1-yl)-3-methylbutan-1-one], the IC50 against AAK1 [1] and against AAK1 [2] was at most 10 nM throughout.
Turning to `CCCOC(=O)N1CCN(c2ccn3ncc(-c4ccc(C)nc4OC)c3n2)CC1` [propyl 4-(3-(2-methoxy-6-methylpyridin-3-yl)pyrazolo[1,5-a]pyrimidin-5-yl)piperazine-1-carboxylate], the half-maximal inhibitory concentration (IC50) at AAK1 [1] and at AAK1 [2] was at most 10 nM in each case.

In general, IC50 refers to the concentration at which inhibition is half-maximal.
